Values of other authors as cited in patent US8063249B1, “Substituted triphenyl butenes” (Olema Pharmaceuticals, Inc., priority 2008, dated 2011).
Like-named read-outs stand apart in the source and are kept apart here.

Assays:
[1] = system: ER; conditions: for binding constants for the ER compared with estradiol: relative to estradiol, from Jordan, Steroids 2007; for binding to the ER: statement in words, from the literature
[2] = target: T1, UGT 1A10 (Homo sapiens, UniProt Q9HAW8)
T1 sequence (Q9HAW8 26-530): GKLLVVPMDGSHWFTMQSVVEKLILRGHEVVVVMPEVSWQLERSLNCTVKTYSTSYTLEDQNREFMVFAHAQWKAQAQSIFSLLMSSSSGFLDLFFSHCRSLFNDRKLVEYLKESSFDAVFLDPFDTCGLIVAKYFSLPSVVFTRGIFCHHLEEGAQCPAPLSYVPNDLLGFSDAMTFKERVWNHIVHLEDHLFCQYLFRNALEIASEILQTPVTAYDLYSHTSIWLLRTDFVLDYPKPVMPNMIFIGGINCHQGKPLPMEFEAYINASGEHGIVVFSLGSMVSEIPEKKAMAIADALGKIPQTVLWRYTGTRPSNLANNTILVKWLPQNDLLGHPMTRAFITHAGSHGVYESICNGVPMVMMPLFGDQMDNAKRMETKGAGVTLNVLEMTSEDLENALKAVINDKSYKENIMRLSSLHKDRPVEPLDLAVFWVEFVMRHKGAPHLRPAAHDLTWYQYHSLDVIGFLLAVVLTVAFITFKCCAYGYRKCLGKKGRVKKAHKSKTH

[3] = target: T2, UGT 1A8 (Homo sapiens, UniProt Q9HAW9)
T2 sequence (Q9HAW9 26-530): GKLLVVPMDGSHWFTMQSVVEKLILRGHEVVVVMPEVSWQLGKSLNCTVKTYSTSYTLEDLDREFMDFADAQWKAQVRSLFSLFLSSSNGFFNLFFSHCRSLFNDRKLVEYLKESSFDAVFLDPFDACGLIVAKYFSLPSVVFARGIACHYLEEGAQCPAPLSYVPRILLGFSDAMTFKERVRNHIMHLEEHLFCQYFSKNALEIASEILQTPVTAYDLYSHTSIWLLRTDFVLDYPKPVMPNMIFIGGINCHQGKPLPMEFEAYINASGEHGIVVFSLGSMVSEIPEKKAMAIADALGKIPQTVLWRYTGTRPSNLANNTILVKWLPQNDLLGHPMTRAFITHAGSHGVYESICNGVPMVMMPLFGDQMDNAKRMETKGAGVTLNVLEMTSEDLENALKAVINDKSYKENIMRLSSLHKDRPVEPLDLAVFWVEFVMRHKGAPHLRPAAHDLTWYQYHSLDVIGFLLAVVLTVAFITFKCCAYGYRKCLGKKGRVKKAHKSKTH

[4] = hydroxy group, from Sun et al. 2007

| Compound | binding constants for the ER compared with estradiol [1] | binding to the ER [1] | substrate for O-glucuronidation by UGT 1A10 [2, 4] | substrate for O-glucuronidation by UGT 1A8 [3, 4] | substrate for O-glucuronidation by UGT 1A10 [2] | substrate for O-glucuronidation by UGT 1A8 [3] |
| --- | --- | --- | --- | --- | --- | --- |
| CC/C(=C(\c1ccc(O)cc1)c1ccc(OCCNC)cc1)c1ccccc1 [endoxifen, 4-hydroxy N-desmethyl tamoxifen] | roughly equal to that of estradiol | bind with high affinity | substrates for O-glucuronidation | substrates for O-glucuronidation |  |  |
| CC/C(=C(\c1ccccc1)c1ccc(OCCN(C)C)cc1)c1ccccc1 [Tamoxifen, tamoxifen] |  | binds very poorly |  |  |  |  |
| CCC(=C(c1ccc(OCCNC)cc1)c1ccc(OC2OC(C(=O)O)C(O)C(O)C2O)cc1)c1ccccc1 (stereo not shown) [glucuronated endoxifen] |  | can no longer bind |  |  |  |  |
| 4-hydroxy tamoxifen | roughly equal to that of estradiol | bind with high affinity |  |  | substrates for O-glucuronidation | substrates for O-glucuronidation |
